What all share (assay): KinomeScan kinase panel, single concentration 10 µM
Holding throughout (format): binding

Assay [1] has as its target T1, KinomeScan kinase panel (Homo sapiens, UniProt O60674).
T1 construct: purchased DiscoveRx (KinomeScan)
As to conditions: 10 µM.

The target in assay [2] is T2, KinomeScan kinase panel (Homo sapiens, UniProt P00533, DEL752-759).
T2 construct: purchased DiscoveRx (KinomeScan)

Assay [3] addresses T3, KinomeScan kinase panel (Homo sapiens, UniProt P10721, V559D/V654A).
T3 construct: purchased DiscoveRx (KinomeScan)
To be noted: KIT(V559D.V654A), 10 µM; read-out: score (%).

Assay [4] concerns the target T4, KinomeScan kinase panel (Homo sapiens, UniProt P27037).
T4 construct: purchased DiscoveRx (KinomeScan)
As to conditions: ACVR2A, 10 µM; read-out: score (%).

The target of assay [5] is T5, KinomeScan kinase panel (Homo sapiens, UniProt P28482).
T5 construct: purchased DiscoveRx (KinomeScan)
T5 sequence (P28482 whole entry): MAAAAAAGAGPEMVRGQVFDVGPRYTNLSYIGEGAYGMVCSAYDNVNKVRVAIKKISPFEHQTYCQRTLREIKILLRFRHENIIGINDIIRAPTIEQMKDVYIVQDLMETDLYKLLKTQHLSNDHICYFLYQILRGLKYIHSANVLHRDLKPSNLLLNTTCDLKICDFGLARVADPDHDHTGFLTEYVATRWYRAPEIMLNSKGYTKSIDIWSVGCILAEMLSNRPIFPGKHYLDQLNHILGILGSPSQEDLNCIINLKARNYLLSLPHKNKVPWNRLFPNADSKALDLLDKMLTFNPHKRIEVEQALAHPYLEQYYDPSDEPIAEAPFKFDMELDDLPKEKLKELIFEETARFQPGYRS
To be noted: ERK2, 10 µM; read-out: score (%).

Assay [6] has as its target T6, KinomeScan kinase panel (Homo sapiens, UniProt P36507).
T6 construct: purchased DiscoveRx (KinomeScan)
As to conditions: MEK2, 10 µM; read-out: score (%).

Assay [7] addresses T7, KinomeScan kinase panel (Homo sapiens, UniProt P36888, D835Y).
T7 construct: purchased DiscoveRx (KinomeScan)
T7 sequence (P36888 27-993 D835Y): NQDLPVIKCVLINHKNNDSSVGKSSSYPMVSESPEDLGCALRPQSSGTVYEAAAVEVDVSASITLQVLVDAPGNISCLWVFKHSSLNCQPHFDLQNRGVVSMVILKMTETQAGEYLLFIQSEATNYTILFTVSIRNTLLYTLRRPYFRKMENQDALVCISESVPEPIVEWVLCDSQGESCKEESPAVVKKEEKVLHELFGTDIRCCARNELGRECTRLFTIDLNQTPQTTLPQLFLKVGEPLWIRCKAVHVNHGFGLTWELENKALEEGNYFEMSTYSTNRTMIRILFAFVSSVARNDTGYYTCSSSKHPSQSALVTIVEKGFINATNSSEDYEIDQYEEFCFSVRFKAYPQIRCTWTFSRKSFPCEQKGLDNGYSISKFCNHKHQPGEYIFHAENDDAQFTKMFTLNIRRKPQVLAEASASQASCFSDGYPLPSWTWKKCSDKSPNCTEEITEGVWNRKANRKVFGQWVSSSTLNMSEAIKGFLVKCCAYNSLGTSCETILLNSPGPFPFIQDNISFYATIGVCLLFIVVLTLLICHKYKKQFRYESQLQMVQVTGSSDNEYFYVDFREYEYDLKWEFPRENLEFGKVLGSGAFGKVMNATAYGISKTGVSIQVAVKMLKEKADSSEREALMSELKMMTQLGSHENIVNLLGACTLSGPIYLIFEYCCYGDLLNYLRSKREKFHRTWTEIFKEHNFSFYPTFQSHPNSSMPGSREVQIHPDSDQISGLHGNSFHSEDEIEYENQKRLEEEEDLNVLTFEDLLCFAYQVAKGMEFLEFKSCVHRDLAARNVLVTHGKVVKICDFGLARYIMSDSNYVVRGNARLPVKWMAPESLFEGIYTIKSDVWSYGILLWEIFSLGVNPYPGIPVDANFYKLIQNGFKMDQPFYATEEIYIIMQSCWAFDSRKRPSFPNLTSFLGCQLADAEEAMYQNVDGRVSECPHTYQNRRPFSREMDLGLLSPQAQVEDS
To be noted: FLT3(D835Y), 10 µM; read-out: score (%).

Assay [8] deals with T8, KinomeScan kinase panel (Homo sapiens, UniProt P49759).
T8 construct: purchased DiscoveRx (KinomeScan)
T8 sequence (P49759 whole entry): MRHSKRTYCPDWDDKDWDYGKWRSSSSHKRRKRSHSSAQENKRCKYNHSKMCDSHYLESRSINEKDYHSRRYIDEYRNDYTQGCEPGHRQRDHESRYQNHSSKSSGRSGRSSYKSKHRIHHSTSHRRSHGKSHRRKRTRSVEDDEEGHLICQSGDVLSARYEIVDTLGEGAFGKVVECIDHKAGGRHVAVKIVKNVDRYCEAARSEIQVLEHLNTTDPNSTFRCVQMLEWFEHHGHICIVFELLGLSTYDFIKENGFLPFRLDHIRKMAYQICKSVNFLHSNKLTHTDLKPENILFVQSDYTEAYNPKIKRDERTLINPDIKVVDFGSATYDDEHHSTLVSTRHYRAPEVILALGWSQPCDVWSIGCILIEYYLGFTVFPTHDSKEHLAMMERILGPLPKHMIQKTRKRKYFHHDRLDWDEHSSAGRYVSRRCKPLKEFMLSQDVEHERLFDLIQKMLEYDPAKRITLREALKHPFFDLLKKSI
As to conditions: CLK1, 10 µM; read-out: score (%).

Assay [9] deals with T9, KinomeScan kinase panel (Homo sapiens, UniProt P68400).
T9 construct: purchased DiscoveRx (KinomeScan)
To be noted: CSNK2A1, 10 µM; read-out: score (%).

Assay [10] has as its target T10, KinomeScan kinase panel (Homo sapiens, UniProt P80192).
T10 construct: purchased DiscoveRx (KinomeScan)
To be noted: MLK1, 10 µM; read-out: score (%).

Assay [11] concerns the target T11, KinomeScan kinase panel (Homo sapiens, UniProt Q06187).
T11 construct: purchased DiscoveRx (KinomeScan)
To be noted: BTK, 10 µM.

Assay [12] addresses T12, KinomeScan kinase panel (Homo sapiens, UniProt Q13976).
T12 construct: purchased DiscoveRx (KinomeScan)
T12 sequence (Q13976 1-671): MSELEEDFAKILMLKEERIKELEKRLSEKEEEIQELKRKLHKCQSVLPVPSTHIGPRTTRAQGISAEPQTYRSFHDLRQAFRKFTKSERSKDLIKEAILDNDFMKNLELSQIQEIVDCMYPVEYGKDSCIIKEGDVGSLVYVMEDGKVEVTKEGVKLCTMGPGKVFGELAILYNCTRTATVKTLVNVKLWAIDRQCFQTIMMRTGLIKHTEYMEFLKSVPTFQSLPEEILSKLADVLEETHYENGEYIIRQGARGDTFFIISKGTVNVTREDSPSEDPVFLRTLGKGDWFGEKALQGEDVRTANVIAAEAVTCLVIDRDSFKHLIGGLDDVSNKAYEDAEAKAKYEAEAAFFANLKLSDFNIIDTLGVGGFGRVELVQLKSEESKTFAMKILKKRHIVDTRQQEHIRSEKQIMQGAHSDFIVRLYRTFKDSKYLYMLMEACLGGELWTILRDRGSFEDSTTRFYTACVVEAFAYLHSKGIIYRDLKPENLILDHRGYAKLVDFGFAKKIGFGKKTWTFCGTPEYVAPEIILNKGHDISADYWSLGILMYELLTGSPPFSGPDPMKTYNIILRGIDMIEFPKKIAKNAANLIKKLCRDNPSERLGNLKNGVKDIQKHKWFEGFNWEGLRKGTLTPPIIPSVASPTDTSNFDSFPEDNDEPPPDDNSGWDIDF
To be noted: read-out: score (%).

The target in assay [13] is T13, KinomeScan kinase panel (Homo sapiens, UniProt Q14012).
T13 construct: purchased DiscoveRx (KinomeScan)
T13 sequence (Q14012 whole entry): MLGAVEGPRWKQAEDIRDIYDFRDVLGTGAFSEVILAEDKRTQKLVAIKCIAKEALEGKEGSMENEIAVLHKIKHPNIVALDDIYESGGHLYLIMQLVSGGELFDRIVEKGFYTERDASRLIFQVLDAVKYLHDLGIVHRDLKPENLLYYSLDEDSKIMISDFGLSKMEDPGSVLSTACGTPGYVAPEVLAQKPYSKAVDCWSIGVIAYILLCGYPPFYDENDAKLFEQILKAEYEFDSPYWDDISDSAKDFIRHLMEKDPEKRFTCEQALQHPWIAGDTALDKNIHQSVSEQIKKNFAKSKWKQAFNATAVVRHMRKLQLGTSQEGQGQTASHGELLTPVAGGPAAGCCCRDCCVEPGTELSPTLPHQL
As to conditions: CAMK1, 10 µM; read-out: score (%).

The target in assay [14] is T14, KinomeScan kinase panel (Homo sapiens, UniProt Q86V86).
T14 construct: purchased DiscoveRx (KinomeScan)
As to conditions: PIM3, 10 µM; read-out: score (%).

For assay [15], the target named is T15, KinomeScan kinase panel (Homo sapiens, UniProt Q8TDR2).
T15 construct: purchased DiscoveRx (KinomeScan)
T15 sequence (Q8TDR2 whole entry): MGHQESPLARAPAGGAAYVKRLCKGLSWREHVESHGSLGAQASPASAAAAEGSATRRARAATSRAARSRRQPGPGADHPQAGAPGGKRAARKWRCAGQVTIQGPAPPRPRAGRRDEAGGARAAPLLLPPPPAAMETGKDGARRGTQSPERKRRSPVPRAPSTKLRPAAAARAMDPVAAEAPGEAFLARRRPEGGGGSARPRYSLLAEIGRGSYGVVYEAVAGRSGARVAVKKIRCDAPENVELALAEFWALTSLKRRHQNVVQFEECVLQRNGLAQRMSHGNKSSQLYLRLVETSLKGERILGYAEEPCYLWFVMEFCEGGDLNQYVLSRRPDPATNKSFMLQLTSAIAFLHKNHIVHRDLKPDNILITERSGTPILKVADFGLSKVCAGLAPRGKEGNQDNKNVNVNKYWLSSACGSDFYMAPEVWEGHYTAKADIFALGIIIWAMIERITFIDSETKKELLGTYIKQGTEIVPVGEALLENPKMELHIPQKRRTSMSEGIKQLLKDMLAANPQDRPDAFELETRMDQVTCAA
To be noted: read-out: score (%).

Like-named read-outs stand apart in the source and are kept apart here.

T3 sequence (P10721 26-976 V559D/V654A): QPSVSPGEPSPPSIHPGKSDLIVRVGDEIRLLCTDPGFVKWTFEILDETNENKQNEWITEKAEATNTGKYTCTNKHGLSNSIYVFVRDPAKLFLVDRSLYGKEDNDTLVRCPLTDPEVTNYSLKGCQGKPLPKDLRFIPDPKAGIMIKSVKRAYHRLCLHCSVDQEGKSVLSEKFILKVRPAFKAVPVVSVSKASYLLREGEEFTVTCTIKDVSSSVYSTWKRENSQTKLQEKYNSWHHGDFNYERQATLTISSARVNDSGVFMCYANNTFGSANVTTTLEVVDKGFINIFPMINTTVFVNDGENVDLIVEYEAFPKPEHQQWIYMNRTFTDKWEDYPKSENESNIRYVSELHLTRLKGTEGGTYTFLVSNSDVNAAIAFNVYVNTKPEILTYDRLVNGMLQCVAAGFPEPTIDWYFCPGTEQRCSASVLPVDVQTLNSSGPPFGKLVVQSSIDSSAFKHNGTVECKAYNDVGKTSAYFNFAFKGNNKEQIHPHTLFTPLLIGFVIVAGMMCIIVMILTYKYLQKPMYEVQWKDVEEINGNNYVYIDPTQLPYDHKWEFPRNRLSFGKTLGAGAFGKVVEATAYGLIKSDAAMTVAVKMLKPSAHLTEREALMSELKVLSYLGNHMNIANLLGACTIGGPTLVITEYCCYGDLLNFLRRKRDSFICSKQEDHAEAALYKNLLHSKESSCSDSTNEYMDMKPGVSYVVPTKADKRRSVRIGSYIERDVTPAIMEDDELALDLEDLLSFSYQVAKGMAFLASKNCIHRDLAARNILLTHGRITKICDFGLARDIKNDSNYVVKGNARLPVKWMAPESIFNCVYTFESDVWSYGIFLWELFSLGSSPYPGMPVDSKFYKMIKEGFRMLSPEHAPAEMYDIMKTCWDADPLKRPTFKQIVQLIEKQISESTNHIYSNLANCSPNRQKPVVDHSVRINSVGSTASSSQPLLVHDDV
T4 sequence (P27037 20-513): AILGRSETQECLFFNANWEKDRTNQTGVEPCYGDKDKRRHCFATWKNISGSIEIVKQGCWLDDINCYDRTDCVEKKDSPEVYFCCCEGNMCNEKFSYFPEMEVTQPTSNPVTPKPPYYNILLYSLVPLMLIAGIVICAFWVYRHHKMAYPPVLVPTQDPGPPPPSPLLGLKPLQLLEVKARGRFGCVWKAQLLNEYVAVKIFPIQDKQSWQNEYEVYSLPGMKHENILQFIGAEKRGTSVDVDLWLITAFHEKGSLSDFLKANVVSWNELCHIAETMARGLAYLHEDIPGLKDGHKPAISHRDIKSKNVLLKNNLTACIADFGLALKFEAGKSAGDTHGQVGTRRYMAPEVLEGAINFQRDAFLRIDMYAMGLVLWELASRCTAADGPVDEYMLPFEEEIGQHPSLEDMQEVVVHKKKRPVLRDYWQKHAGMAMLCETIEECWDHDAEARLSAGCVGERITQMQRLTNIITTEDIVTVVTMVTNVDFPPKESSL
T11 sequence (Q06187 whole entry): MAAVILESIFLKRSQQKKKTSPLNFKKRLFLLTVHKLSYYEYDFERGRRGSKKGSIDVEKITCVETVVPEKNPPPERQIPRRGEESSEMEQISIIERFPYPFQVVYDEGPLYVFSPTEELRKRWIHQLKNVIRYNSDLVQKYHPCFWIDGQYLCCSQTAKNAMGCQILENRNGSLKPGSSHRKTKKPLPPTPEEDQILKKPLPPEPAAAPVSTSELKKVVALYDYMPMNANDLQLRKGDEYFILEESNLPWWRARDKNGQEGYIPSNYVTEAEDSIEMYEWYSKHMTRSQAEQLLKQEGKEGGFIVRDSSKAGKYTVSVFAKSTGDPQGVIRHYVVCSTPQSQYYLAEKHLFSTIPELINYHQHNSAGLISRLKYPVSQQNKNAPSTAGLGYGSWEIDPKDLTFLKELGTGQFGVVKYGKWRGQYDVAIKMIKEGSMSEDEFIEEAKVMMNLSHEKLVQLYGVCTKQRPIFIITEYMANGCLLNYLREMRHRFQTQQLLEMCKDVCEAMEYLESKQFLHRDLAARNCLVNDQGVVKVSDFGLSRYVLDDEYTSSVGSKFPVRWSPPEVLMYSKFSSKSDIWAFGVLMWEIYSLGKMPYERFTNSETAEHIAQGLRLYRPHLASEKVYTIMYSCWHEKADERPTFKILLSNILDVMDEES
T1 sequence (O60674 whole entry): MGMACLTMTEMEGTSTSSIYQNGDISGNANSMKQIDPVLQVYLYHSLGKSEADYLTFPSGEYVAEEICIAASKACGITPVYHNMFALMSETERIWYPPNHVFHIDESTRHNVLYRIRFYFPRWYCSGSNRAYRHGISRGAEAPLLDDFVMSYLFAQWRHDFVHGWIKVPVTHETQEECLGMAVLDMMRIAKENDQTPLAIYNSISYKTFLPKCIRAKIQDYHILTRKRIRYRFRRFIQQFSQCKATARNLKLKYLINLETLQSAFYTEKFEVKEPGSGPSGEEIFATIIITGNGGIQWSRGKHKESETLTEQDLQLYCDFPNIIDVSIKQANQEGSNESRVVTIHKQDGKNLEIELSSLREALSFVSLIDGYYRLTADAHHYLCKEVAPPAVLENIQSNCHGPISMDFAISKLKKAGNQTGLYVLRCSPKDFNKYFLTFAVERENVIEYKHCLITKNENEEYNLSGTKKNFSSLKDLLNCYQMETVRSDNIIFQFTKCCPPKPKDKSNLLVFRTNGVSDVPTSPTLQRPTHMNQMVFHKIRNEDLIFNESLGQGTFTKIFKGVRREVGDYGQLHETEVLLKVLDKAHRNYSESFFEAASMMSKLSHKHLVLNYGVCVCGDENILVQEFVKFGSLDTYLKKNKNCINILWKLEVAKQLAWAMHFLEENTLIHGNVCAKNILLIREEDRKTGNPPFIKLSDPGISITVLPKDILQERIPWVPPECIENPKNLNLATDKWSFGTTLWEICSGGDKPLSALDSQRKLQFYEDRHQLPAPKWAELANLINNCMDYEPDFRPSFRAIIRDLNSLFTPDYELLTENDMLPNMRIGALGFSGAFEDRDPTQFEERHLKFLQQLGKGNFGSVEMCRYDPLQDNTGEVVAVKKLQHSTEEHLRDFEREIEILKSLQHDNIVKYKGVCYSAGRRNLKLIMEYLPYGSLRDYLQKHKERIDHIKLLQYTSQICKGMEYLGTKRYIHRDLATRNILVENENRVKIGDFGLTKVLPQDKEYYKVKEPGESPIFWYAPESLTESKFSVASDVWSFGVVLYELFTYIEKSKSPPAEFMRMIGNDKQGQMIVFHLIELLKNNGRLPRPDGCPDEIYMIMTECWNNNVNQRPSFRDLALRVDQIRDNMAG

`CCN1CCN(Cc2ccc(NC(=O)c3ccc(C)c(NC(=O)c4cncc(-c5cccs5)c4)c3)cc2C(F)(F)F)CC1` [ALW-II-41-27]: the “score (%)” value on KinomeScan kinase panel [1] (JAK2(JH1domain-catalytic)) is given as 11%; on KinomeScan kinase panel [2], 3%; on KinomeScan kinase panel [11], 0.1%. The remaining binding at 10 µM on KinomeScan kinase panel [3] was 5.4%; on KinomeScan kinase panel [4], above 30%; on KinomeScan kinase panel [5], above 30%; at KinomeScan kinase panel [6], above 30%; on KinomeScan kinase panel [7], 3.3%; at KinomeScan kinase panel [8], 1.1%. Moreover, the remaining binding at 10 µM on KinomeScan kinase panel [9] is above 30%; on KinomeScan kinase panel [10], above 30%; at KinomeScan kinase panel [12] (PRKG1, 10 µM) it was above 30%; on KinomeScan kinase panel [13], above 30%; on KinomeScan kinase panel [14], above 30%; on KinomeScan kinase panel [15] (kinase STK35, 10 µM), 21%.

Turning to `CCN1CCN(Cc2ccc(NC(=O)c3ccc(C)c(/C=C/c4cnc5[nH]ccc5c4Cl)c3)cc2C(F)(F)F)CC1` [HG-6-63-01, (E)-3-(2-(4-chloro-1H-pyrrolo[2,3-b]pyridin-5-yl)vinyl)-N-(4-((4-ethylpiperazin-1-yl)methyl)-3-(trifluoromethyl)phenyl)-4-methylbenzamide], the “score (%)” value was found to be 12% at KinomeScan kinase panel [1] (JAK2(Kin.Dom.2)); 0% on KinomeScan kinase panel [2] (EGFR(S752-I759del), 10 µM); 3.8% at KinomeScan kinase panel [11]. The remaining binding at 10 µM on KinomeScan kinase panel [3] is 0.9%; on KinomeScan kinase panel [4] it was above 30%; at KinomeScan kinase panel [5] it was above 30%; at KinomeScan kinase panel [6] it was above 30%; at KinomeScan kinase panel [7], 0.85%; on KinomeScan kinase panel [8], 27%. Besides, the remaining binding at 10 µM at KinomeScan kinase panel [9] was 15%; at KinomeScan kinase panel [10] it was 0.6%; on KinomeScan kinase panel [12] (PRKG1, 10 µM) it was above 30%; at KinomeScan kinase panel [13], above 30%; on KinomeScan kinase panel [14], above 30%; on KinomeScan kinase panel [15] (STK35, 10 µM) it was above 30%.

Regarding `CCN1CCN(Cc2ccc(NC(=O)c3ccc(C)c(C#Cc4cccnc4)c3)cc2C(F)(F)F)CC1` [XMD15-44], the “score (%)” value at KinomeScan kinase panel [1] (JAK2(JH1domain-catalytic)) was 3%; at KinomeScan kinase panel [2] (EGFR(S752-I759del), 10 µM), 0.9%; on KinomeScan kinase panel [11], 2%. Besides, the remaining binding at 10 µM at KinomeScan kinase panel [3] is 4.2%; on KinomeScan kinase panel [4], above 30%; on KinomeScan kinase panel [5], above 30%; on KinomeScan kinase panel [6] it was above 30%; at KinomeScan kinase panel [7], 0.5%; on KinomeScan kinase panel [8], 3.9%. Moreover, the remaining binding at 10 µM on KinomeScan kinase panel [9] is above 30%; on KinomeScan kinase panel [10], above 30%; at KinomeScan kinase panel [12] (kinase PRKG1, 10 µM), 100%; on KinomeScan kinase panel [13], above 30%; at KinomeScan kinase panel [14], 100%; on KinomeScan kinase panel [15] (kinase STK35, 10 µM), 1.6%.

The values above are taken from article PMC4457528, “Identification of Novel Small Molecule Inhibitors of Oncogenic RET Kinase” (PLoS ONE, 2015).
